This passage reports EC50, IC50 and AC50 results from ChEMBL document CHEMBL1201862, “PubChem BioAssay data set” (2004).

Active and inactive are the calls of the source.

The target in one assay is Mu-type opioid receptor (Homo sapiens, UniProt P35372). It is filed as functional, cell-based.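 Also: U2OS cells with beta-arrestin recruitment to OPRM1 by beta-gal complementation.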
Assay [1] addresses 5-hydroxytryptamine receptor 2A (Mus musculus, UniProt P35363). The class given is functional, cell-based.
Assay [2] deals with T1, Sentrin-specific protease 8 (Homo sapiens, UniProt Q96LD8).
T1 sequence (Q96LD8 whole entry): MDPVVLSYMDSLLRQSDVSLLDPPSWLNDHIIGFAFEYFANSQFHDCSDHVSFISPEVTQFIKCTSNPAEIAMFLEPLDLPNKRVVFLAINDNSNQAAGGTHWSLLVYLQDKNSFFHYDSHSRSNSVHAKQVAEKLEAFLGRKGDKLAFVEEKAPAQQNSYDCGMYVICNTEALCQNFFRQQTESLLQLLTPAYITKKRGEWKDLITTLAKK
It is filed as functional.

The target in assay [3] is T1, Sentrin-specific protease 8. It is filed as functional. The source holds these as a separate data set.
In the next assay the target is T2, Caspase-3 (Homo sapiens, UniProt P42574).
T2 sequence (P42574 whole entry): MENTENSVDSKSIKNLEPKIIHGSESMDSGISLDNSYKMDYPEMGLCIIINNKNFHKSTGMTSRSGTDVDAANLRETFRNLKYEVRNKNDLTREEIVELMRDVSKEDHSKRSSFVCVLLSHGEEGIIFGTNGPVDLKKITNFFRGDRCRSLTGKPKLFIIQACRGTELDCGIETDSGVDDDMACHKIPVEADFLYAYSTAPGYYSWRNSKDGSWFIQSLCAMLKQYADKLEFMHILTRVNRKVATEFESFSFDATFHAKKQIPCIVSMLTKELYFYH
The assay is described as follows: Dose-response confirmation of uHTS inhibitor hits of Sentrin-Specific Protease 8 in a Caspase-3 Fluorescence assay. The class given is functional.

Assay [4] has as its target Broad substrate specificity ATP-binding cassette transporter ABCG2 (Homo sapiens, UniProt Q9UNQ0). The assay is described as follows: blockers of JC-1 export by ABCG2 – Ig-MXP3 cells, flow cytometry, dose response (AID 1690). The class given is functional. A general note: A flow cytometer gives signals particle by particle.
Assay [5] is described as follows: Inhibition of T. cruzi Tulahuen strain amastigotes in L-6 muscle cells Measured in Cell-Based and Microorganism Combination System Using Plate Reader - 2138-03_Inhibitor_Dose_CherryPick_Activity. The class given is functional. The note with it: Rattus norvegicus, L6.
Assay [6] in a line: L6 myocyte viability loss – cell-based, plate reader, cherry-pick, cytotoxicity control, dose response (AID 651896). The class given is functional.
A short description of assay [7]: Inhibition of Plasmodium falciparum NF54 Measured in Cell-Based System Using Plate Reader - 2138-11_Inhibitor_Dose_CherryPick_Activity. It is filed as functional.
The nature of assay [8]: antileishmanial activity on axenic amastigotes – plate reader, cherry pick, dose response (AID 651891). The class given is functional, cell-based. The note with it: Leishmania donovani.
Assay [9] can be described thus: intracellular Trypanosoma cruzi inhibitors in host cells – cell-based, plate reader, cherry-pick samples, set 3, dose response (AID 651818).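 Also: compounds incubated with infected cells for about four days.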 The class given is functional.
A short description of assay [10]: African trypanosome bloodstream form growth inhibition – STIB900 strain, plate reader, cherry pick, dose response (AID 651893). The class given is functional, cell-based, Trypanosoma brucei rhodesiense. The following applies: Trypanosoma brucei.
Assay [11] has as its target Glucose-6-phosphate 1-dehydrogenase (Homo sapiens, UniProt P11413). The assay is described as follows: inhibition of Homo sapiens G6PD, dose series – biochemical, fluorescence, selectivity assay for P. falciparum G6PD inhibitor project, dose response (AID 504792). The class given is functional.
The subject of the next assay is HEK293. The assay is described as follows: cells. The class given is functional, cell-based. The note with it: Homo sapiens.
Assay [12] deals with T3, Nuclear receptor subfamily 0 group B member 1 (Homo sapiens, UniProt P51843).
T3 sequence (P51843 whole entry): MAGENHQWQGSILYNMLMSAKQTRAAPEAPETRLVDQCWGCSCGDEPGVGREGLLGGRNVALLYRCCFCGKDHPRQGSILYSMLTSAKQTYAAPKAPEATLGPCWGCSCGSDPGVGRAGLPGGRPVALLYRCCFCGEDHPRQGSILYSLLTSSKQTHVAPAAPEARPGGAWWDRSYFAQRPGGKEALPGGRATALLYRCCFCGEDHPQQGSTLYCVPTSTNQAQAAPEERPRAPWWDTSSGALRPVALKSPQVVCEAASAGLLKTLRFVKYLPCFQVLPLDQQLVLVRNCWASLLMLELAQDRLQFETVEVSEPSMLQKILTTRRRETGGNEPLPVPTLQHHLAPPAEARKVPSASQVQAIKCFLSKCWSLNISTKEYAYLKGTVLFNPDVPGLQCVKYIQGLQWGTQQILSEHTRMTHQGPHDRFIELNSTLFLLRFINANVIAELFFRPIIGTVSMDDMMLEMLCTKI
The assay is described as follows: Luminescence-based cell-based high throughput dose response assay for inhibitors of the orphan nuclear receptor subfamily 0, group B, member 1 (DAX1; NR0B1). [Related pubchem assays (depositor defined):AID504766, AID504790]. It is filed as functional.

In assay [13] the target is T4, Tyrosine-protein phosphatase non-receptor type 11 (Homo sapiens, UniProt Q06124).
T4 sequence (Q06124 whole entry): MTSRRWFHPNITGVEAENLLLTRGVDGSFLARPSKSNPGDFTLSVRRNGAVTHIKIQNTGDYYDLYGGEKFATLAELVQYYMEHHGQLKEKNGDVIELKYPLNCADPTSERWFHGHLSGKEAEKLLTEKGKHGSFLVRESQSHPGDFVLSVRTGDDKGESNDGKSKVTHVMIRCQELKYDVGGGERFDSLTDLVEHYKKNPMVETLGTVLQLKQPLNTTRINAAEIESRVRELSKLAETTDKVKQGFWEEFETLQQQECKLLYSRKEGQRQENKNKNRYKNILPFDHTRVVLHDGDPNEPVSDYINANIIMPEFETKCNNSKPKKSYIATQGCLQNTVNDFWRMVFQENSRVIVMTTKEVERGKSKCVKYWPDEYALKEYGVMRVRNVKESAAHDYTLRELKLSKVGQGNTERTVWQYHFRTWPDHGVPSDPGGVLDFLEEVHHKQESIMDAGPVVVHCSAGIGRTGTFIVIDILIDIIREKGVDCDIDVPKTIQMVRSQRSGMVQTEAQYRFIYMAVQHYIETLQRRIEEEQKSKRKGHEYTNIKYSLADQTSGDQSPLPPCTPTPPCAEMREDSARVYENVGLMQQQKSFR
The assay is described as follows: PTPN11 enzyme inhibitors – biochemical, selectivity assay for STEP inhibitor project, dose response (AID 602367). The following applies: read-out: IC50_Mean. The class given is functional.

Assay [14] deals with T5, Tyrosine-protein phosphatase non-receptor type 5 (Homo sapiens, UniProt P54829).
T5 sequence (P54829 whole entry): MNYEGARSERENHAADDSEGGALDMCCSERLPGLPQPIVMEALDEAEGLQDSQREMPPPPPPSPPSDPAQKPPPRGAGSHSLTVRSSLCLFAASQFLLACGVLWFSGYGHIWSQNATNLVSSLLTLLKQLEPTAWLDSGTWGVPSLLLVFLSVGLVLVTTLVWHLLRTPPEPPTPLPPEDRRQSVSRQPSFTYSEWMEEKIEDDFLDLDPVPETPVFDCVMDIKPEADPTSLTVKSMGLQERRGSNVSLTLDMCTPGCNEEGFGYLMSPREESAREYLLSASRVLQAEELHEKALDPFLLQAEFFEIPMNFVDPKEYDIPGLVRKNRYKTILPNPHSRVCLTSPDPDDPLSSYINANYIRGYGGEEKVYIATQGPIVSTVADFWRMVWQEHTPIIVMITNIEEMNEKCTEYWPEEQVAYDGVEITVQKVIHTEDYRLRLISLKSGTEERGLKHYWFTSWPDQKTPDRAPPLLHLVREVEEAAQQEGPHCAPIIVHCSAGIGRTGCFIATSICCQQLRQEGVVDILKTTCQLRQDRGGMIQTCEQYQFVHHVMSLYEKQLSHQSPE
As to the kind of experiment: PTPN5 enzyme inhibition – biochemical, fluorescence intensity, uHTS hits, confirmation (AID 602372). The class given is functional. The following applies: read-out: IC50_Mean.

In assay [15] the target is Dual specificity protein phosphatase 3 (Homo sapiens, UniProt P51452). As to the kind of experiment: VHR phosphatase inhibition, dose response, selectivity assay for STEP inhibitor project, biochemical (AID 602374). The class given is functional. The following applies: read-out: IC50_Mean.
Chain of Dual specificity protein phosphatase 3 (P51452 whole entry): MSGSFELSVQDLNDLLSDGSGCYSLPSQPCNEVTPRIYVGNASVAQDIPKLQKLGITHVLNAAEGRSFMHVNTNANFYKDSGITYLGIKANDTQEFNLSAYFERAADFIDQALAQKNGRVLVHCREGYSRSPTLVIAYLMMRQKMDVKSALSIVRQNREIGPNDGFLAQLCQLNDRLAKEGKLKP
Assay [16] deals with Tyrosine-protein phosphatase non-receptor type 22 (Homo sapiens, UniProt Q9Y2R2). As to the kind of experiment: lymphoid phosphatase LYP inhibitors – biochemical, selectivity assay for STEP inhibitor project, dose response (AID 624241). The class given is functional.
Chain of Tyrosine-protein phosphatase non-receptor type 22 (Q9Y2R2 whole entry): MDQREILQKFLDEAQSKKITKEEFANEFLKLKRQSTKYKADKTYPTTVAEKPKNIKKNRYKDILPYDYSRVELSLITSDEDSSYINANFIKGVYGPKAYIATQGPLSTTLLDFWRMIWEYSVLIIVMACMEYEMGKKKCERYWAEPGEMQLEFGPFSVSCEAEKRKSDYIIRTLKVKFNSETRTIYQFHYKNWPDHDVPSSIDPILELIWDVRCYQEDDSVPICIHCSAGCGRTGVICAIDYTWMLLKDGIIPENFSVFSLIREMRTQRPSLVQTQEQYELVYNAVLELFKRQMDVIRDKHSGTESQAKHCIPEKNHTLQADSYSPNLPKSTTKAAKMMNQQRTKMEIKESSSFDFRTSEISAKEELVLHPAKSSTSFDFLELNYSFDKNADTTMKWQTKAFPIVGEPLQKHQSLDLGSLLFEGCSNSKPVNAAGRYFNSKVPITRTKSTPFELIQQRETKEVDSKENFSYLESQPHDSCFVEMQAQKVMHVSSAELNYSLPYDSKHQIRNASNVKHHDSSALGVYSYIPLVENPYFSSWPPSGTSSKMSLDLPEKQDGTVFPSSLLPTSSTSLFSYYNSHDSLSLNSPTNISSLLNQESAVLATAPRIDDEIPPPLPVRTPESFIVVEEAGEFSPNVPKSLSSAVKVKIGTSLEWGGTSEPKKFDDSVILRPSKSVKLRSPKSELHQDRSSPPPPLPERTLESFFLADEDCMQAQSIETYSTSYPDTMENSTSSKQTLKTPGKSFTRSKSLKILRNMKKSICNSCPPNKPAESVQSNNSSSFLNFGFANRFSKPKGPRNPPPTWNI

Chain of Mu-type opioid receptor (P35372 whole entry): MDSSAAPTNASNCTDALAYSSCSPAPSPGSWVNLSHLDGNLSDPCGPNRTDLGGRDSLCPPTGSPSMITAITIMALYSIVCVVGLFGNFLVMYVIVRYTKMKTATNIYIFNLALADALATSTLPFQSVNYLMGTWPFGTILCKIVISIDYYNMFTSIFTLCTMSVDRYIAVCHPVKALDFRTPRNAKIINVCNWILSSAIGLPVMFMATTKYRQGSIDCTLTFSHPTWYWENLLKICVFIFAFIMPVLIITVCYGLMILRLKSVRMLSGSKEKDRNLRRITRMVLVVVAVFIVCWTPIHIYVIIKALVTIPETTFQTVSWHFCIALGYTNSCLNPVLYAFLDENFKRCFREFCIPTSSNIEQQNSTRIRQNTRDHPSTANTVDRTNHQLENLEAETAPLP
Chain of Glucose-6-phosphate 1-dehydrogenase (P11413 whole entry): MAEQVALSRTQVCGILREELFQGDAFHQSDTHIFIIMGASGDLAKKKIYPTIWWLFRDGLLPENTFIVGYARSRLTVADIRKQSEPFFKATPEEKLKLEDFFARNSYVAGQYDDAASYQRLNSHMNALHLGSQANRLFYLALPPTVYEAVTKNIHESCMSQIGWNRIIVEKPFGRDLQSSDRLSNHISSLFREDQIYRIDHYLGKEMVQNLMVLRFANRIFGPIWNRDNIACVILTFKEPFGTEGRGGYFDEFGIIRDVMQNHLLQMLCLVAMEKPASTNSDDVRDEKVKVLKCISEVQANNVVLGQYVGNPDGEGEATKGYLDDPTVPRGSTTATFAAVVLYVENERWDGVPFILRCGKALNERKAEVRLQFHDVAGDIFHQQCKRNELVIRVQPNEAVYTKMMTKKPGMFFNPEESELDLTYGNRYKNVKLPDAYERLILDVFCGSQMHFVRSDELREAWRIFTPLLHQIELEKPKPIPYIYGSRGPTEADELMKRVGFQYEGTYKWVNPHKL
Chain of 5-hydroxytryptamine receptor 2A (P35363 whole entry): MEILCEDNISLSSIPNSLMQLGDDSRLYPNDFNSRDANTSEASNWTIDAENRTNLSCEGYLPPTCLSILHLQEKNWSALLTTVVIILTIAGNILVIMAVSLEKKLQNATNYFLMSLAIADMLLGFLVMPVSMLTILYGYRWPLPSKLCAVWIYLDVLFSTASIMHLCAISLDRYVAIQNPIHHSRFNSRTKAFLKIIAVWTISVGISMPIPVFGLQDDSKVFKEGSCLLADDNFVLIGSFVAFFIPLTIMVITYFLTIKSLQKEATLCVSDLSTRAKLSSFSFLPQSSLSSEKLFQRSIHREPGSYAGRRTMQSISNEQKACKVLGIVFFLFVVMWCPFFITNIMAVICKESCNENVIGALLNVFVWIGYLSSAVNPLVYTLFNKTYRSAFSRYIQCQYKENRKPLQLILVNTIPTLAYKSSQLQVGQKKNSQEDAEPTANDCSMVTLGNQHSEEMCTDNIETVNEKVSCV
Chain of Broad substrate specificity ATP-binding cassette transporter ABCG2 (Q9UNQ0 whole entry): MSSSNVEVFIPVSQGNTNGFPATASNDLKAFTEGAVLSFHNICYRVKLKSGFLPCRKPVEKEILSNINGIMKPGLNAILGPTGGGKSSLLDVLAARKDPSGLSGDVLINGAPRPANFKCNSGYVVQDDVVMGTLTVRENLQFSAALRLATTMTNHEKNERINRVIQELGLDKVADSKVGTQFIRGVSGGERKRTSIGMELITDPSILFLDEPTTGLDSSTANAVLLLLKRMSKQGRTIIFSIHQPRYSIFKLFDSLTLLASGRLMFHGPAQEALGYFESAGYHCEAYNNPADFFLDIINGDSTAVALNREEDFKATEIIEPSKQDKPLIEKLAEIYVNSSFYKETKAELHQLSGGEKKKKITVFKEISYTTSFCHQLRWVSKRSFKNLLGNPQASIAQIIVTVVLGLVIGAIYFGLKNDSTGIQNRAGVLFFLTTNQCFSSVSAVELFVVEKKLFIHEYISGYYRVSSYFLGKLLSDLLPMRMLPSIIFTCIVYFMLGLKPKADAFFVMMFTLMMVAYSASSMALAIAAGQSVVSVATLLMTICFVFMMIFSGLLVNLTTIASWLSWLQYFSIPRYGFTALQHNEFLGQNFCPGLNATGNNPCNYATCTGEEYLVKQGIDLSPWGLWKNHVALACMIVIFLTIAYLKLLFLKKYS

Broadly, the EC50 is the concentration needed to bring the measured effect to its halfway point. On to `COc1cccc(CN2CCN(C(=O)c3ccco3)CC2)c1`, for which the EC50 at Mu-type opioid receptor was 92.5 µM (inactive); in assay [1], 1.16 µM (active).
Consider `COc1ccc(OC)c(S(=O)(=O)N(C)CC(=O)N2CCc3ccccc3C2)c1`, for which the IC50 was 8.07 µM (active) in [2], 9.57 µM (active) in assay [3] and 30.8 µM (active) on Caspase-3.
Regarding `Cc1cc(C)c(C#N)c(SCc2c(F)cccc2[N+](=O)[O-])n1`, in assay [4], the EC50 was 3.82 µM (active).
Usually AC50 stands for the midpoint of the concentration-response curve, whichever way the signal moves. As for `C[C@H]1CN([C@@H](C)CO)C(=O)c2cccc(NC(=O)c3ccncc3)c2O[C@H]1CN(C)Cc1ccccc1`, the IC50 in [5] was 19.2 µM (inactive); in [6], > 100 µM (inactive); in assay [7], 19.2 µM (inactive); in assay [8], > 100 µM (inactive); in assay [10], 51.5 µM (inactive). In addition, in assay [9], the AC50 is 0.267 µM (active).
Consider `CCN1CCN(C(=S)c2ccc(O)cc2)CC1`, for which the IC50 is > 80 µM (inactive) in assay [11]; > 67.6 µM (inactive) with HEK293; > 67.6 µM (inactive) in [12]; 0.712 µM (active) in assay [13]; 20.1 µM (inactive) in assay [14]; 0.74 µM (active) in [15]. For the same compound, in [16], the IC50 was 45.1 µM (inactive).
